PMC8175350, “Drug repurposing screens identify chemical entities for the development of COVID-19 interventions” (Nature Communications, 2021)
Read-outs that look alike come from different tables or passages of the source.

Legend:
[1] = test system: SARS-CoV-2; assay: microbe, parasite or virus in culture; type: cell-based; details: for Emax: Severe acute respiratory syndrome coronavirus 2, Calu-3, 48 h, curve-fit effect at infinite concentration, average, read-out: Calu-3 CoV-2 Sinf Average
[2] = Uninfected HeLa-ACE2 24 h live/dead cytotoxicity counter screen; type: cell-based, human; details: human, uninfected HeLa-ACE2 cells
[3] = in vitro; details: human
[4] = test system: SARS-CoV-2; assay: microbe, parasite or virus in culture; type: cell-based
[5] = test system: Calu-3 cells; assay: cells; details: Homo sapiens; for Emax: Calu-3, 48 h, read-out: Calu-3 cell count Sinf Average; for EC50: Calu-3, read-out: Calu-3 cell count EC50 GeoMean, unrounded geometric mean
[6] = human, cited from earlier work; for Approx. t1/2: ref [33]-[49]
[7] = test system: HeLa-ACE2 cells; assay: cells; details: Homo sapiens; for EC50: HeLa-ACE2, read-out: HeLa-ACE2 cell count EC50 GeoMean, unrounded geometric mean
[8] = test system: Calu-3 cells; assay: Uninfected Calu-3 48 h Cell-Titer Glo cytotoxicity counter screen; details: curve-fit effect at infinite concentration, average
[9] = as above; details: human, uninfected Calu-3 cells
[10] = test system: HeLa-ACE2 cells; assay: Uninfected HeLa-ACE2 24 h live/dead cytotoxicity counter screen; type: cell-based, human; details: curve-fit effect at infinite concentration, average
[11] = test system: SARS-CoV-2; type: cell-based; details: HeLa-ACE2
[12] = Severe acute respiratory syndrome coronavirus 2, Calu-3, reconfirmed hits, read-out: Calu-3 SARS-CoV-2 EC50
[13] = Severe acute respiratory syndrome coronavirus 2, Calu-3, unrounded geometric mean, read-out: Calu-3 CoV-2 EC50 GeoMean
[14] = reconfirmed hits, read-out: HeLa-ACE2 Uninf. cells CC50
[15] = unrounded geometric mean, read-out: HeLa-ACE2 uninfected cytotoxicity CC50 GeoMean
[16] = Calu-3 Uninf. cells CC50 (µM), reconfirmed hits
[17] = Calu-3 uninfected cytotoxicity CC50 GeoMean, unrounded geometric mean
[18] = Severe acute respiratory syndrome coronavirus 2, HeLa-ACE2, reconfirmed hits, read-out: HeLa-ACE2 SARS-CoV-2 EC50
[19] = Severe acute respiratory syndrome coronavirus 2, HeLa-ACE2, unrounded geometric mean, read-out: HeLa-ACE2 CoV-2 EC50 GeoMean
[20] = read-out: Approx. Cmax, oral, ref [36],[37],[42],[43] as in column Refs.

Compound	Emax [1] [%]	EC50 [1, 12] [µM]	EC50 [1, 13] [µM]	CC50 at 24 h [2, 14] [µM]	CC50 at 24 h [2, 15] [µM]	EC50 [4, 18] [µM]	EC50 [4, 19] [µM]	Emax [5] [%]	EC50 [5] [µM]	Approx. t1/2 [6] [h]	Cmax [6, 20] [nM]	EC50 [7] [µM]	other results
C=Cc1cc(C(=O)Nc2ccc(C(=N)N)cc2)c(-c2ccc(C(=O)NCC3CC3)nc2C(=O)O)cc1OC [Avoralstat]	88	0.387	0.387	> 40	> 39.8	> 9.6	> 9.59	91	0.57	14	364	> 9.59	CC50 [3, 16]: > 30 µM; CC50 [3, 17]: > 29.9 µM
COC(=O)[C@]12CCC(C)(C)C[C@H]1[C@H]1C(=O)C=C3[C@@]4(C)C=C(C#N)C(=O)C(C)(C)[C@@H]4CC[C@@]3(C)[C@]1(C)CC2 [Bardoxolone methyl]	96	0.079	0.0794	3.1	3.1	0.541	0.541	41	0.116	39	50	1.26	Calu-3 uninfected cytotoxicity Sinf Average [8]: -97%; CC50 at 48 h [9, 16]: 3.06 µM; CC50 at 48 h [9, 17]: 3.06 µM; HeLa-ACE2 uninfected cytotoxicity Sinf Average [10]: -101%; CC50 at 24 h ([2]; uninfected cells, Fig. 2b group, read-out: HeLa-ACE2 CC50): ≤ 3 µM; Emax ([4]; Severe acute respiratory syndrome coronavirus 2, HeLa-ACE2, 24 h, curve-fit effect at infinite concentration, average, read-out: HeLa-ACE2 CoV-2 Sinf Average): 100%; Emax ([7]; HeLa-ACE2, 24 h, read-out: HeLa-ACE2 cell count Sinf Average): 101%
COC(=O)C1=C(C)NC(C)=C(C(=O)OCCN2CCN(C(c3ccccc3)c3ccccc3)CC2)C1c1cccc([N+](=O)[O-])c1 (stereo not shown) [Manidipine]	–	5.48	–	> 17.1	–	6.89	–	–	–	3	–	–	CC50 at 48 h ([3]; Calu-3 Uninf. cells CC50 (µM)): > 30 µM; Synergy score with remdesivir (δ) [11]: −4.73; Cmax ([6]; in vivo, po): 10 nM
